According to ChEMBL document CHEMBL4270602, “Design, synthesis, docking studies and biological screening of 2-thiazolyl substituted -2,3-dihydro-1H-naphtho[1,2-e][1,3]oxazines as potent HIV-1 reverse transcriptase inhibitors” (Eur J Med Chem, 2018):
pEC50, pIC50: −log10 of the molar value.

How the values were obtained:
[1] = biological target: Human immunodeficiency virus type 1 reverse transcriptase (Human immunodeficiency virus 1) (UniProt Q72547); assay: Potency index, ratio of efavirenz EC50 to compound EC50 for inhibition of recombinant HIV-1 reverse transcriptase RNA-dependent DNA polymerase activity
[2] = test system: Human immunodeficiency virus 1; assay: Antiviral activity against Human immunodeficiency virus 1 NL4-3 infected in human CEM-GFP cells after 7 days by p24 ELISA; format: functional, organism-based; details: Human immunodeficiency virus 1, NL4-3, CEM-GFP, 168 h
[3] = Therapeutic index, ratio of CC50 for human CEM-GFP cells to IC50 for HIV-1 NL4-3 infected in human CEM-GFP cells; format: toxicity, cell-based; details: read-out: Ratio CC50/IC50
[4] = biological target: Human immunodeficiency virus type 1 reverse transcriptase (Human immunodeficiency virus 1, UniProt Q72547); assay: Inhibition of recombinant HIV-1 reverse transcriptase RNA-dependent DNA polymerase activity using poly(rA)/oligo(dT)16 as template/primer preincubated for 5 to 10 mins followed by template/primer addition and measured after 16 hrs by colorimetric assay
[5] = Cytotoxicity against human CEM-GFP cells after 48 hrs by MTT assay; format: cell-based
[6] = biological target: Human immunodeficiency virus type 1 reverse transcriptase (Human immunodeficiency virus 1) (UniProt Q72547); assay: Potency index, ratio of inophyllym B EC50 to compound EC50 for inhibition of recombinant HIV-1 reverse transcriptase RNA-dependent DNA polymerase activity

With COc1ccc2c3c(ccc2c1)OCN(c1nc(-c2ccc(C(F)(F)F)cc2)cs1)C3 the Ratio EC50 [1] was 2.5, the pIC50 [2] was 7.08 and the selectivity ratio [3] was 318. For the same molecule, the pEC50 [4] was 7.18 and the CC50 at 48 h [5] was 26300 nM.

Work on O=C1Nc2ccc(Cl)cc2[C@@](C#CC2CC2)(C(F)(F)F)O1 [EFAVIRENZ] yielded a pIC50 [2] of 6.79 and a CC50 at 48 h [5] of 40500 nM.

With C[C@H]1[C@H](O)c2c(c3c(c4c(-c5ccccc5)cc(=O)oc24)OC(C)(C)C=C3)O[C@@H]1C the pEC50 [4] was 6.65.

In the case of Fc1ccc(-c2csc(N3COc4ccc5ccccc5c4C3)n2)cc1, the pIC50 [2] was 6.62, the selectivity ratio [3] was 106 and the pEC50 [4] was 6.68. It also gave a CC50 at 48 h [5] of 25300 nM.

Work on Cc1cn([C@H]2C[C@H](N=[N+]=[N-])[C@@H](CO)O2)c(=O)[nH]c1=O [ZIDOVUDINE] yielded a pIC50 [2] of 7.25, a selectivity ratio [3] of 236 and a CC50 at 48 h [5] of 13100 nM.

For COc1ccc2c3c(ccc2c1)OCN(c1nc(-c2ccc(F)cc2)cs1)C3, the pIC50 [2] was 6.60, the selectivity ratio [3] was 96.2 and the pEC50 [4] was 6.72. For the same molecule, the CC50 at 48 h [5] was 24300 nM.

Molecule FC(F)(F)c1ccc(-c2csc(N3COc4ccc5ccccc5c4C3)n2)cc1 has a pIC50 [2] of 7.02, a Ratio EC50 [6] of 3 and a selectivity ratio [3] of 258. The pEC50 [4] was 7.10 and the CC50 at 48 h [5] was 24700 nM.
